This passage reports IC50, EC50 and selectivity ratio results from ChEMBL document CHEMBL1782049, “The synthesis and evaluation of a novel class of (E)-3-(1-cyclohexyl-1H-pyrazol-3-yl)-2-methylacrylic acid hepatitis C virus polymerase NS5B inhibitors” (Bioorg Med Chem Lett, 2011).

Data set [1] has as its system Hepatitis C virus. Briefly: Inhibition of Hepatitis C virus subtype 1b NS5B activity assessed as inhibition of poly(A)n.oligo(dT)12-18-directed incorporation of [3H]-UTP into […] after 45 mins.
The test system of data set [2] is Hepatitis C virus. Briefly: Antiviral activity against Hepatitis C virus subtype 1b infected in human Huh7 cells by replicon assay. The data set is classed as functional, organism-based, Hepacivirus hominis. The settings on record: genotype 1b, Huh-7. (In general: A replicon is a self-replicating genome or part of one, used to study replication in cells.)
The subject of data set [3] is Hepatitis C virus. The experiment in a line: Antiviral activity against Hepatitis C virus subtype 1b harboring NS5B P495A mutant infected in human Huh7 cells by replicon assay. The data set is classed as functional, organism-based, Hepacivirus hominis. The settings on record: genotype 1b, Huh-7.
A short description of data set [4]: Therapeutic index, ratio of CC50 for human HuH cells to EC50 for Hepatitis C virus subtype 1b. The data set is classed as cell-based. The following applies: read-out: Ratio CC50/EC50.

As to `CNC(=O)c1ccc(-c2ccc(C#N)cc2)c(COc2ccc(-c3cc(/C=C(\C)C(=O)O)nn3C3CCCCC3)cc2)c1`, the half-inhibitory concentration (IC50) (commonly the point on the concentration scale where inhibition reaches its midpoint) in data set [1] is 790 nM.
As for `CNC(=O)c1ccc(-c2ccc(Cl)cc2)c(COc2ccc(-c3nc(/C=C(\C)C(=O)O)cn3C3CCCCC3)cc2)c1`, the IC50 in data set [1] was determined as 1620 nM.
As to `CNC(=O)c1ccc(-c2ccc(Cl)cc2)c(COc2ccc(-n3nc(/C=C(\C)C(=O)O)cc3C3CCCCC3)cc2)c1`, the IC50 in data set [1] was determined as 4030 nM.
Same read-out and setting: the value for `CNC(=O)c1ccc(-c2ccc(Cl)cc2)c(COc2ccc(-c3cc(/C=C(\C)C(=O)O)nn3C3CCCCC3)cc2)c1` was 380 nM.
As for `C/C(=C\c1cc(-c2ccc(OCc3cc(C(=O)N(C)C)ccc3-c3ccc(Cl)cc3)cc2)n(C2CCCCC2)n1)C(=O)O`, a half-maximal response in data set [2] (EC50) required 1900 nM. Further, the IC50 in data set [1] is 460 nM.
As for `C/C(=C\c1cc(-c2ccc(OCc3cc(C(=O)N4CCC(O)CC4)ccc3-c3ccc(Cl)cc3)cc2)n(C2CCCCC2)n1)C(=O)O`, the IC50 in data set [1] stood at 440 nM.
Consider `C/C(=C\c1nn(C2CCCCC2)c(-c2ccc(OCc3cc(C(=O)N4CCC(O)CC4)ccc3-c3ccc(Cl)cc3)cc2)c1Br)C(=O)O`, for which a half-maximal response in data set [2] (EC50) required 700 nM. Also, the IC50 in data set [1] amounted to 650 nM.
Regarding `C/C(=C\c1cc(-c2ccc(OCc3cc(C(=O)NCCO)ccc3-c3ccc(Cl)cc3)cc2)n(C2CCCCC2)n1)C(=O)O`, the concentration for half-maximal inhibition (IC50) in data set [1] was 1030 nM.
With `C/C(=C\c1cc(-c2ccc(OCc3cc(C(=O)N(C)C)ccc3-c3ccc(C#N)cc3)cc2)n(C2CCCCC2)n1)C(=O)O`, the IC50 in data set [1] was 820 nM.
`C/C(=C\c1cc(-c2ccc(OCc3cc(C(=O)N4CCC(O)CC4)ccc3-c3ccc(C#N)cc3)cc2)n(C2CCCCC2)n1)C(=O)O`: the EC50 (as a rule, the concentration at which the effect is half-maximal) is 4000 nM in data set [3] and 400 nM in data set [2]. In addition, in data set [4], the selectivity ratio is more than 60. Besides, the IC50 in data set [1] is 340 nM.
In the case of `CNC(=O)c1ccc(-c2ccc(C(C)=O)s2)c(COc2ccc(-c3cc(/C=C(\C)C(=O)O)nn3C3CCCCC3)cc2)c1`, in data set [1], the IC50 is 2290 nM.
Still for that read-out and setting: the result for `CC(=O)c1ccc(-c2ccc(C(=O)N(C)C)cc2COc2ccc(-c3cc(/C=C(\C)C(=O)O)nn3C3CCCCC3)cc2)s1` reads 2700 nM; that for `CC(=O)c1ccc(-c2ccc(C(=O)N3CCOCC3)cc2COc2ccc(-c3cc(/C=C(\C)C(=O)O)nn3C3CCCCC3)cc2)s1`, 5200 nM.
Consider `CNC(=O)c1ccc(-c2ccc(Cl)cc2)c(COc2ccc(-c3nc4cc(C(=O)O)ccc4n3C3CCCCC3)cc2)c1`, for which the EC50 in data set [2] was found to be 300 nM. In addition, the IC50 in data set [1] stood at 640 nM.
